Source: patent US6407058B1, “Modifying the permeability of physiological barriers” (Eisai Co., Limited, priority 1996, dated 2002)

Experiments:
Type in all cases: cell-based
paxillin = paxillin electrophoretic mobility by immunoblotting, MDCK I cells; settings: 200 nM PDB, 30 minutes
Protocol: The migration of the cellular proteins p100 and p120 during electrophoresis is increased following PDB-treatment of MDCK I cells. PDB (phorbol-12,13-dibutyrate) is a pharmacological activator of protein kinase C. MDCK I cells are a kidney derived epithelial cell line, with particularly well developed junctional complexes. Cells treated for 30 minutes with either 200 nM PDB (+) or vehicle (−) were then lysed into Laemmli sample buffer, and separated by electrophoresis using 6% acrylamide gels. Proteins were transferred to nitrocellulose and probed with antibodies to p100/p120, and then reprobed with E-cadherin and paxillin antibodies.
Cell extracts or immunoprecipitates in SDS sample buffer were resolved by SDS-PAGE. The slab gels were then equilibrated in buffer comprising; 48 mM Tris, 39 mM glycine, 20% methanol and 0.03% SDS. Proteins were transferred to nitrocellulose filters (Hybond ECL; Amersham), which were Ponceau S stained and then blocked for 2 hours at 37° C. with 1% BSA in PBS containing 0.05% Tween-20. Filters were then probed with p120 antibody, at a dilution of 1:2500. […] The filters were then extensively washed in PBS/0.5% Tween-20, and immunoreactive bands were detected by enhanced chemiluminescence (Amersham) following the manufacturers instructions.

p100/p120 [1] = assay: [32P]orthophosphate labelling and immunoprecipitation of p100/p120, MDCK I cells
Protocol: PDB induces dephosphorylation of p100 and p120. We investigated the possibility that the altered pattern of migration during electrophoresis of p100 and p120 following treatment with PDB is due to a change in the phosphorylation state of these proteins. MDCK I cells were metabolically labelled with [^32P]orthophosphate, treated with or without 200 nM PDB, and the p100 and p120 isolated by immunoprecipitation with antibodies recognising p100 and p120. This immunoprecipitation was carried out under buffer conditions which removed any associated proteins from p100 and p120. Protein was separated by electrophoresis, transferred to nitrocellulose filters, and exposed to film (Example 6A). The greater the amount of radioactive phosphate incorporated into the protein, the greater the signal on the film. […] To normalise for slight differences in protein loading, the same filters were then probed with p100/p120 antibody, and the level of p100/p120 protein determined by densitometry. Thus, the amount of phosphate per unit protein could be calculated. […]
MDCK I cells grown to confluence on 24 mm filters were incubated overnight in phosphate-free MEM, containing 0.5% serum (dialysed against 0.9% NaCl and 10 mM Hepes (pH 7.5)) and 100 μCi/ml [^32P]orthophosphate (Amersham). […] Filters were then probed with p120 antibodies, and the resulting ECL exposure scanned in the same way, to quantify protein loading.

E-cadherin = assay: [32P] phosphorylation of immunoprecipitated E-cadherin, MDCK I cells; settings: PDB-treated, same cell lysates
p100/p120 [2] = assay: phosphoamino acid (PAA) analysis of p100/p120, MDCK I cells; settings: PDB treatment
Protocol: Following phosphate labelling, immunoprecipitation and visualisation of p100/p120 as in panel A above, the levels of p100/p120 protein were determined by immunoblotting. Thus it could be ascertained that approximately equal amounts of protein from PDB-treated and untreated cells were used for the PAA analysis. The p100/p120 bands were excised, and the proteins hydrolysed into their constituent amino acids by boiling in 5.7 M HCl. PAAs were then separated by two-dimensional electrophoresis, and detected by autoradiography. p100/p120 from control cells contains mainly phosphoserine (S), some phosphothreonine (T) and no detectable phosphotyrosine (Y). Following PDB treatment, both phosphoserine and phosphothreonine levels are reduced.
For phosphoamino acid (PAA) analysis, MDCK I cells were labelled as above with [^32P]orthophosphate, and the p100 and p120 extracted from PDB-treated or untreated cells by immunoprecipitation (as above). Following transfer to Immobilon P, and immunoblotting to assess recovery of protein, the area of the filter containing p100 and p120 was excised. The proteins were hydrolysed at 110° C. for one hour in 5.7 M HCl to release PAAs. Following lyophilisation, two dimensional PAA separation and detection was carried out as previously described (Boyle et al., 1991).

p100/p120 [3] = assay: p100/p120 electrophoretic mobility, human umbilical vein endothelial cells (HUVECs); settings: HUVEC, 5 minutes; histamine 10 μM, PDB 200 nM

Structure (SMILES): CCCC(=O)O[C@@H]1[C@@H](C)[C@@]2(O)[C@@H](C=C(CO)C[C@]3(O)C(=O)C(C)=C[C@@H]23)[C@@H]2C(C)(C)[C@]12OC(=O)CCC [PDB, Phorbol-12,13-dibutyrate]
- effect on paxillin migration (phosphorylation) (paxillin): upward band shift
- phosphate content of p100/p120, of that in untreated cells (mean±s.d.) (p100/p120 [1]; 200 nM PDB 30 minutes, seven independent sets of experiments): 58±11%
- phosphate in p100/p120 lost (p100/p120 [1]; 200 nM PDB, single experiment (FIG. 7B), normalised for protein): approximately 40%
- phosphorylation of E-cadherin (E-cadherin): no change
- phosphoserine and phosphothreonine levels of p100/p120 (p100/p120 [2]): reduced
- reduction in phosphate signal (PAA densitometry) (p100/p120 [2]): approximately 40%
- mobility of p120 and p100 (p100/p120 [3]): increased mobility
